Reference: patent publication US11185598B2, “Preparation of stabilised x-ray diagnostic composition” (GE HEALTHCARE AS, priority 2010, dated 2021)

Legend:
Type in all cases: physicochemical
[1] = Stability of Compound I at different pH: inorganic iodide and pH after autoclaving; conditions: 320 mg I/ml, 121° C. 120 minutes or 134° C. 60 minutes
Description: Experiments were performed to investigate the level of inorganic iodide generated as a result of degeneration of Compound I as a result of a pH and heating regime. Reference is made to FIGS. 1 and 2. The heat load was controlled by using a BIER-vessel for the steam heat sterilisation. Formulated Compound I (drug product, DP, 320 mg I/ml) was added 25% HCl to obtain 4 series of 6 vials with a pH of 2.0, 3.1, 4.0 and 7.7, respectively.
DP (10 ml) was filled in 10 ml vials. 3 vials from each series were autoclaved at 121° C. for 120 minutes and the remaining 3 vials were autoclaved at 134° C. for 60 minutes. The samples, including 2 reference samples, were subjected to pH and iodide analyses.

[2] = Solubility in water (comparison)
[3] = Iodide level after steam heat sterilisation, conventional heating regime; conditions: 134° C. for 45 minutes, no reduced pH
Description: During the development of new iodinated X-ray contrast agents, several heating regimes have been tested to find the parameters to be used for the secondary productions. Among these are end heat steam sterilization at 134° C. or 121° C. for 45 minutes or more, pre-heating in the mixing tank above the dissolution temperature (e.g. 110-111° C./330 mg I/ml) using different regimes followed by end heat steam sterilization etc. Although some of these heating regimes might be capable of providing a physically stable solution, they may cause high levels of free iodide due to degeneration of the iodinated X-ray contrast agent (Scheme 1). […] This is above the acceptable level.

[4] = Inorganic iodide in X-ray composition prepared by the process of the invention (400 litre batch); conditions: 320 mg I/ml
Description: 261 kg of Compound I was dissolved in 250 litres of water for injection (WFI) and added 44 g Na2Ca-EDTA.2H2O in the mixing tank (A). HCl 5M was used to set the solution to pH 3. Under these conditions, to the composition underwent heating for 40 minutes at 122° C. […] This solution was cooled to approximately 50° C. and filtered through a 10 kDa ultrafilter. The remaining WFI to yield a solution of 320 mg I/ml of compound I was used to rinse the ultrafilter by dilution of the concentrated retentate. The filtered solution was dispensed and autoclaved for 20 minutes at 121° C. After autoclaving, the concentration of inorganic iodide was 10 μg/ml, which is approximately a fifth of the concentration resulting from a conventional production not using the process of the invention.

[5] = Saturation / dissolution temperature of contrast agent solution in water
Excerpt: The injection solution of Compound I is highly supersaturated. The nucleation (precipitation) in the injection solution at storage conditions is strongly undesirable. The physical stability of the solution, i.e. prevention of the nucleation for a certain time at storage conditions, may be improved substantially by heat treatment of the solution well above its saturation temperature for a sufficiently long period of time. A solution in which the concentration of the solute (API) exceeds the equilibrium solute concentration at a given temperature is said to be supersaturated. […] Such solutions are denoted as supersaturated. Saturation temperature is the temperature where all solid API (amorphous and crystalline) apparently dissolves completely. As the solubility of Compound I decreases with decreasing temperature, the supersaturation increases.
For a compound or contrast agent with a defined crystalline state (single polymorph) at one side, and a solvent including dissolved admixtures on the other, the concentration of the agent in the solution in equilibrium with the crystalline state is called solubility. At this concentration the activity of the agent is equal in both phases. A system out of the equilibrium stage tends to change the solution concentration towards the equilibrium (solubility), e.g. dissolve crystals when under-saturated, or crystallize out compound when supersaturated. Normally, the solubility changes, usually increases, with temperature. For the purpose, we define the temperature at which the crystal solubility is equal to the concentration in the particular solution as “dissolution temperature”. When a solution contains crystals, the crystals dissolve at temperatures above the “dissolution temperature”, remaining a crystal free solution. When the amount of the crystals is small, the concentration increase by dissolution may be neglected.

Row | change in pH after autoclaving ([1]; start pH in the range 2-4) | iodide levels after autoclaving ([1]; start pH in the range 2-4) | change in pH after autoclaving ([1]; start pH of 7.7) | iodide levels after autoclaving ([1]; start pH of 7.7) | solubility in water compared with iodixanol [2] | iodide levels after steam heat sterilisation [3] | inorganic iodide concentration relative to conventional production not using the process ([4]; after autoclaving) | concentration of inorganic iodide after autoclaving ([4]; heated 40 minutes at 122° C. at pH 3, then pH 7.3, autoclaved 20 minutes at 121° C.) [ng/mL] | dissolution temperature ([5]; at 330 mg I/ml) | dissolution temperature ([5]; water for injection as solvent, concentration range 270-380 mg I/ml) [°C] | Compound | saturation temperature ([5]; solution of about 320 mg I/ml in water)
1 | no significant change in pH | only a minor increase in iodide levels | corresponding drop in pH | high iodide levels | lower solubility in water than iodixanol | 75-85 μg I/ml | approximately a fifth | 10000 | 110-111 °C | ~110 | O=CN(CC(O)CN(C=O)c1c(I)c(C(=O)NCC(O)CO)c(I)c(C(=O)NCC(O)CO)c1I)c1c(I)c(C(=O)NCC(O)CO)c(I)c(C(=O)NCC(O)CO)c1I (centres unmarked) [Compound I, 5-[formyl-[3-[formyl-[3,5-bis(2,3-dihydroxypropylcarbamoyl)-2,4,6-triiodophenyl]amino]-2-hydroxypropyl]amino]-N,N′-bis(2,3-dihydroxypropyl)-2,4,6-triiodobenzene-1,3-dicarboxamide] | –
2 | – | – | – | – | – | – | – | – | – | – | CC(=O)N(CC(O)CN(C(C)=O)c1c(I)c(C(=O)NCC(O)CO)c(I)c(C(=O)NCC(O)CO)c1I)c1c(I)c(C(=O)NCC(O)CO)c(I)c(C(=O)NCC(O)CO)c1I (centres unmarked) [iodixanol, reference compound] | approximately 92 °C
